Source: patent US20100248390A1, “COMPOSITIONS AND METHODS FOR IDENTIFYING LIGANDS OF ODORANT RECEPTORS” (DUKE UNIVERSITY, priority 2009, published 2010)
Where two headings read alike, the source gives them in different places.

Tests used:
[1] = target: T1, human odorant receptors (ORs) (Homo sapiens, UniProt Q8WZ94); experiment: CRE-luciferase assay of odorant receptor activation (Dual-Glo, Hana3A cells, RTP1S), dose-response EC50; format: cell-based; settings: receptor OR5P3
T1 construct: OR open reading frames were amplified from genomic DNA; expressed in transfected cells; host or cells: Hana3A cells, co-transfected with RTP1S, CRE-luciferase and pRL-SV40
T1 sequence (Q8WZ94 1-311): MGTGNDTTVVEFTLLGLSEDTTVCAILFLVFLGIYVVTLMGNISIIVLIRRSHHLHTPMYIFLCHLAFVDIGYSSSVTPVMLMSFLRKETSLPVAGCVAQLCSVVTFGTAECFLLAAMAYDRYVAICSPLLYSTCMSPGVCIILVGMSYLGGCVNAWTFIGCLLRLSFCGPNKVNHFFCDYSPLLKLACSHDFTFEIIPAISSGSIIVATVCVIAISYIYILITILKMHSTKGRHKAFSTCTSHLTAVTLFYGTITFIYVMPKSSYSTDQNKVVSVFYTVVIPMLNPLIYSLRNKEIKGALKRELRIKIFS
Outline: (§1)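 Hana3A cells were co-transfected with Rho-tagged OR, RTP1S, CRE-luciferase and pRL-SV40, then exposed to odorant in CD293 medium for 4 hrs at 37° C. Firefly luminescence was divided by Renilla and normalized as (LN−Lmin)/(Lmax−Lmin) per plate set. Each dose was tested at least three times, and EC50 came from sigmoidal fits.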

[2] = target: T2, human odorant receptors (ORs) (Homo sapiens, UniProt O76002); experiment: as above; format: cell-based
T2 construct: OR open reading frames were amplified from genomic DNA; expressed in transfected cells; host or cells: Hana3A cells, co-transfected with RTP1S, CRE-luciferase and pRL-SV40
T2 sequence (O76002 1-312): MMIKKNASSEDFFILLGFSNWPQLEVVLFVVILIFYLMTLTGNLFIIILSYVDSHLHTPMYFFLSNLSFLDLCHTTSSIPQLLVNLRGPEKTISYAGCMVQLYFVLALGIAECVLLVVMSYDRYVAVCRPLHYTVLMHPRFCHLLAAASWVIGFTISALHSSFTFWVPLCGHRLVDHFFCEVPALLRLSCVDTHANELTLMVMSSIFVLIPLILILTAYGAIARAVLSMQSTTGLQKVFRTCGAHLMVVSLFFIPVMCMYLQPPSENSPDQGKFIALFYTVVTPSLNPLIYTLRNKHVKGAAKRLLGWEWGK
Outline: as §1

[3] = read-out: log EC50 (Table 4 value), OR5P3 (converted)

Row | log EC50, OR5P3 ([1]; 0 = no response) | EC50 [1, 3] [µM] | SMILES | also measured
1 | −4.645 | – | C=C(C)C1CC=C(C)C(=O)C1 (single isomer, unassigned; (-)) [(−)-Carvone] | –
2 | – | – | CCCCCCCCCCO [1-Decanol] | EC50 [2]: 384 µM
3 | – | – | CCCCCCCO [1-Heptanol] | EC50 ([2]; receptor OR2J2, 0 = no response, read-out: log EC50, OR2J2 (converted)): 536 µM; EC50 ([1]; 0 = no response, read-out: log EC50, OR5P3 (converted)): 1090 µM
4 | −5.173 | – | C=C(C)[C@H]1CC=C(C)C(=O)C1 [(+)-Carvone] | –
5 | – | 126 | CC(=O)c1ccccc1 [Acetophenone] | –
6 | – | 5.62 | O=c1ccc2ccccc2o1 [Coumarin] | EC50 ([2]; receptor OR2J2, read-out: log EC50 (Table 4 value), OR2J2 (converted)): 274 µM
